For data set [1] the following is noted: for Increase of maximal aqueous solubility: with a 10 fold increase in DMSO content.
Description: 20 mg of each of the tested hybrid compounds of the present invention was dissolved in 0.2 ml of DMSO and then diluted with 200 ml, 40 ml, 20 ml and 10 ml of water to obtain a 0.1%, 0.5% 0.1% and 2.0% DMSO content in the aqueous solution, respectively. Each aqueous solution was sonicated for 2 minutes, filtered through 0.2 micron filter and centrifuged at 14,000 rpm for 3 minutes. UV-VIS spectra were obtained thereafter at 476 nm to determine the solubilized fraction of the tested hybrid compound.
The subject of data set [2] is spinal cord of EAE-induced NOD mice. Nature of the data set: Histological staining of spinal cord sections of EAE-induced NOD mice (Bielschowsky silver, Luxol fast blue). In kind it is in vivo. As for the experimental part: The attenuation of EAE progress in model animals was further tested by following pathological findings thereof in 7 μm coronal spinal cord section samples of the tested mice under cryogenic conditions. The axonal pathology analysis was performed on day 63 post-immunization by immunostaining of spinal cord sections. Spinal cord sections from mice were fixed in 4% paraformaldehyde overnight followed by 4.5% sucrose for 4 hours, then 20% sucrose for overnight at 4° C. Spinal cord sections were frozen and stored until used at −80° C.
Histological staining studies of spinal cord sections were preformed according to the Bielschowsky silver staining method, which specifically stains nerve fibers and axons so as to appear in black when observed under an optical microscope, and according to the Luxol fast blue staining method, which specifically stains myelin/myelinated axons so as to stain the myelin in blue-green while the neuron remains pink when observed under an optical microscope. Reduction in the degree of staining expresses damage to the neuron.
The Bielschowsky silver staining was performed as described before in Litchfield and Nagy, Acta Neuropathol (Berl) 2001, 101(1), pp. 17-21. Briefly, spinal cord sections were place in pre-warmed solution of 10% silver nitrate placed in a 40° C. oven and shaken for 15 minutes until sections became light brown in color, and thereafter rinsed in water. The spinal cord sections were thereafter placed back in the same ammonium silver solution and placed in a 40° C. oven for additional 30 minutes and rinse in water followed by dehydration in 95% ethyl alcohol, absolute alcohol and xylene.
The Luxol fast blue staining was perform as described before in Dolcetta et al J Neurosci Res.; 81(4):597-604. Briefly, spinal cord sections were placed in luxol fast blue solution in a 56° C. oven for 16 hours and rinsed with 95% ethyl alcohol and distilled water. Thereafter the spinal cord sections were placed in carbonate solution for 30 seconds and rinsed in water followed by dehydration in 95% ethyl alcohol, absolute alcohol and xylene. […]

In data set [3] the test system is MOG-induced EAE in NOD mice. Nature of the data set: Efficacy in MOG-induced EAE in NOD mice, daily treatment from day 20 to day 70. In kind it is in vivo. Conditions: for Severity of EAE (in words): compared to carboxyfullerene treated and vehicle (PBS) treated mice, Table 3, FIG. 3; for Phase II Second Peak Mean Score Disease / Phase III Third Peak Mean Score Disease / Phase IV Secondary Progressive Mean Score Disease: scale 0-5; for Cumulative Score: days 21-70; for Prevalence of Disease with score above 1.5: treated daily from day 20 after immunization to day 70; for Phase IV Secondary Progressive Mean Score Disease: day 70. As for the experimental part:
Non-obese diabetic (NOD) mice were purchased from Jackson laboratories. The mice were maintained in viral antibody-free (VAF) facility at Harvard Institutes of Medicine animal care facility and used at 10 weeks of age.
Myelin oligodendrocyte glycoprotein (MOG 35-55) was synthesized at the peptide/protein facility at the center for neurologic disease at BWH, Boston, Mass., USA.
(§1) Mice were immunized S.C. with 150 μg of MOG 35-55 peptide in […].
(§2) Pertussis toxin was given I.V. (150 ng per mouse) at the time of immunization and 48 hours later. The severity of disease was evaluated daily on the following scale: 0 for no clinical symptoms; 1 for distal tail weakness or tail atonia; 2 for impaired righting reflex and slight hind limb paralysis; 3 for complete paralysis affecting of both hind limbs; 4 for complete paralysis affecting of both hind limbs and fore limb weakness, or moribund state; and 5 for death.

For data set [4], the system named is MOG-induced EAE in NOD mice. Nature of the data set: Efficacy in MOG-induced EAE in NOD mice, Compound 20 at two doses compared to NBQX, daily from day 23. The format is in vivo. As for the experimental part:
as §1, §2

[5] abbreviates: 0.1% DMSO content in final aqueous solution.
[6] abbreviates: 0.5% DMSO content in final aqueous solution.

“Also recorded” adds a separate entry of the source. Like-named read-outs stand apart in the source and are kept apart here. Marks after values point to notes of the source that are not given here.

For the compound “2,2-fullerenyl-malonic acid bis(adamantan-1-ylcarbamate-diethyleneglycol) ester [Compound 16]”, in data set [1], the “Increase of maximal aqueous solubility” value turned out to be 20 fold.

Take “2,2-fullerenyl-malonic acid bis(adamantan-1-ylcarbamate-poly(n)ethyleneglycol) ester wherein average n=10 [Compound 19]”: the values for the Maximal aqueous concentration in data set [1] (setting [5]), in data set [1] (setting [6]) and in data set [1] (1.0% DMSO content in final aqueous solution) were 1.17 10^−5 M, 5.12 10^−5 M and 6.97 10^−5 M, respectively. Further, the “Increase of maximal aqueous solubility” value in data set [1] was 6 fold.

Consider “2,2-fullerenyl-malonic acid bis(adamantan-1-ylcarbamate-poly(n)ethyleneglycol) ester wherein average n=10 [Compound 20]”, for which the “Axonal density / axonal damage in white matter of spinal cord (in words)” value in data set [2] (Bielschowsky silver impregnation, day 63 post-immunization, compared to untreated control mice, FIG. 5) is on record as “reduction of EAE-derived axonal damage; also recorded: lower reduction in axonal density”. The “Demyelination of axons in white matter of spinal cord (in words)” value in data set [2] (Luxol fast blue staining, compared to untreated control mice, FIG. 6) is recorded as “reduction in demyelination of axons”. Besides, the “Progression of chronic EAE as damage to neurons (in words)” value in data set [2] (treatment initiated after disease onset, FIGS. 5 and 6) was “lesser damage caused to the neurons”. Also, the “Severity of EAE (in words)” value in data set [3] is listed as “clearly reduce the severity of relapsing-remitting EAE; also recorded: reduction in severity of the disease”. For the same compound, the “Phase II Second Peak Mean Score Disease” value in data set [3] (day 26) is given as 0.70*; in data set [3] (day 27), 0.55*; in data set [4] (30 μg/Kg daily from day 23, day 37) it was 1.60*; in data set [4] (30 μg/Kg daily from day 23, day 41) it was 1.50*; in data set [4] (300 μg/Kg daily from day 23, day 37), 2.25; in data set [4] (300 μg/Kg daily from day 23, day 41), 2.25. For the same compound, the “Phase III Third Peak Mean Score Disease” value is 0.60* in data set [3] (day 31) and 0.65* in data set [3] (day 38). Besides, the “Cumulative Score” value in data set [3] is 53.0*. Further, the “Prevalence of Disease with score above 1.5” value (“Prevalence of Disease” below) in data set [3] was 4/10. In addition, the “Severity of the disease, mean disease score (in words)” value in data set [4] (30 μg/Kg and 300 μg/Kg, compared to NBQX treated and untreated mice, FIG. 4) was “reduction in severity of the disease”. The figures for the Death in data set [4] (30 μg/Kg daily from day 23) and in data set [4] (300 μg/Kg daily from day 23) were 0/14 and 2/14, respectively. Further, the “Phase III Secondary Progressive Mean Score Disease” value is reported as 2.12* in data set [4] (30 μg/Kg daily from day 23, day 62); 2.15* in data set [4] (30 μg/Kg daily from day 23, day 63); 3.08 in data set [4] (300 μg/Kg daily from day 23, day 62); 3.17 in data set [4] (300 μg/Kg daily from day 23, day 63). The “Protection from progression of chronic EAE (in words)” value in data set [4] (30 μg/Kg daily, compared to 300 μg/Kg) was “significantly protect progression of chronic EAE”.

Take “2,2-fullerenyl-malonic acid bis(adamantan-1-ylcarbamate-tetraethyleneglycol) ester [Compound 6]”: the “Severity of EAE (in words)” value in data set [3] is reported as “clearly reduce the severity of relapsing-remitting EAE; also recorded: reduction in severity of the disease”. The “Phase II Second Peak Mean Score Disease” value in data set [3] (day 26) is given as 0.75*; in data set [3] (day 27), 0.80. The “Phase III Third Peak Mean Score Disease” value in data set [3] (day 31) is reported as 0.90*; in data set [3] (day 38) it was 1.30. Besides, the “Phase IV Secondary Progressive Mean Score Disease” value in data set [3] is 2.85. Moreover, in data set [3], the “Cumulative Score” value is listed as 90.6. The “Prevalence of Disease” value in data set [3] was 9/10. Further, the Maximal aqueous concentration in data set [1] (setting [5]) is 1.18 10^−5 M; in data set [1] (setting [6]) it was 1.38 10^−5 M; in data set [1] (2.0% DMSO content in final aqueous solution), 0.036 mg/mL. In data set [1], the “Increase of maximal aqueous solubility” value is “more than 2.6 fold”.

With `O=C(O)C1(C(=O)O)C2=C1C1C3C4=c5c6c7c8c(c9c(c%10c%11c%12c%13c%14c%15c%16c(c2c3c%16c5c%14c6c%12c%108)C=CC%152C(C(=O)O)(C(=O)O)C%132C=C%11)C9(C(=O)O)C(=O)O)C2C=CC1C4C72` (stereo not drawn) [Carboxyfullerene, C3-stereoisomer of trimalonic acid derivative of a C60 fullerene, reference compound], the “Phase II Second Peak Mean Score Disease” value in data set [3] (day 26) is 1.00. For the same compound, in data set [3] (day 27), the “Phase II Second Peak Mean Score Disease” value amounted to 0.85. For the same compound, the “Phase III Third Peak Mean Score Disease” value in data set [3] (day 31) was determined as 1.15. Further, in data set [3] (day 38), the “Phase III Third Peak Mean Score Disease” value is listed as 1.45. Moreover, in data set [3], the “Phase IV Secondary Progressive Mean Score Disease” value is on record as 2.65, the “Cumulative Score” value came out at 87.45 and the “Prevalence of Disease” value is listed as 8/10.

`NS(=O)(=O)c1cccc2c1c([N+](=O)[O-])cc1nc(O)c(O)nc12` [NBQX, 2,3-dihydroxy-6-nitro-7-sulfamoyl-benzo(f)quinoxaline, reference compound]: the Death in data set [4] (30 mg/Kg daily from day 23) was 6/14. The “Phase II Second Peak Mean Score Disease” value in data set [4] (30 mg/Kg daily from day 23, day 37) is listed as 1.75; in data set [4] (30 mg/Kg daily from day 23, day 41) it was 1.88. Also, the “Phase III Secondary Progressive Mean Score Disease” value is 3.31 in data set [4] (30 mg/Kg daily from day 23, day 62) and 3.38 in data set [4] (30 mg/Kg daily from day 23, day 63). Moreover, in data set [4] (30 mg/Kg, Table 4, FIG. 4), the “Suppression of the second phase of EAE (in words)” value is “showed a tendency to suppress the second phase of EAE”. Besides, the “Preventing the chronic disease progression (in words)” value in data set [4] (NBQX 30 mg/Kg compared to Compound 20 at 30 and 300 μg/Kg) is recorded as “not as effective as the Compound 20”.

These data come from patent US20100144868A1, “Novel Neuroprotective Compounds and Uses Thereof” (Ramot At Aviv University Ltd., priority 2005, published 2010).
